Like-named read-outs stand apart in the source and are kept apart here.
Columns and labels:
[1] = biological target: sigma sites labeled by 4-[125I]PEMP in guinea pig brain membranes; format: binding; conditions: read-out: Ki against 4-[125I]PEMP
Procedure: (§1) Intact adherent cells were washed (2×1 mL) with 10 mM phosphate buffer (pH=7.2). […] Each data point represent an average of three values. The cells were incubated at 37° C. for 1 hr. and subsequently washed with phosphate buffer (10 mM; pH 7.2) (3×1 mL). The cells were then dissolved in 0.2 N NaOH (1.0 mL) and the activity counted on a Beckman (DP 5500) Gamma Counter. A similar procedure was repeated with 2-[^125I]BP with MCF-7, MDA-MB 231 and T47D breast cancer cells.
(§2) The affinity of compounds for sites labeled by 4-[^125I]PEMP was determined by homologous and heterologous in vitro competitive binding assays in intact MCF-7 breast cancer cells and guinea pig brain membranes labeled by 4-[^125I]PEMP. The assays were prepared according to the procedure described in Example 14.

[2] = test system: Sigma-1 sites, MCF-7 breast adenocarcinoma
Sigma-2 [3] = biological target: T1, Sigma-2 (Rattus norvegicus, UniProt Q5U3Y7); experiment: Sigma-2 binding assay, rat liver membranes, [3H]DTG + dextrallorphan (Example 9)
T1 sequence (Q5U3Y7 1-176): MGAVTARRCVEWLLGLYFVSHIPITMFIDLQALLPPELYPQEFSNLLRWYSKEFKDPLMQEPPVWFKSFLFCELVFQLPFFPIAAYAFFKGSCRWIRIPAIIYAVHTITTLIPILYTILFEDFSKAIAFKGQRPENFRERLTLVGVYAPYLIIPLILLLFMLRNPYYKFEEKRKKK

[4] = biological target: MUSC (muscarinic receptors); format: binding; conditions: read-out: Ki MUSC RAT BRAIN [3H]QNB
DOPAMINE D-2 = biological target: T2, DOPAMINE D-2 (Rattus norvegicus, UniProt P61169); experiment: Dopamine D-2 binding, rat brain, [3H]-(−)-sulpiride; conditions: Table 2 of Example 9
T2 construct: from tissue

Sigma-1 [5] = biological target: T3, Sigma-1 (Cavia porcellus, UniProt Q60492); experiment: Sigma-1 binding assay, guinea pig brain membranes, [3H]-(+)-pentazocine (Example 9)
Procedure: A plasma membrane-mitochondrial (P2) membrane fraction was prepared from frozen guinea pig brains (Pel-Freeze, Rogers, Ak.), minus cerebellum. The brain tissue was thawed slowly before homogenization. A crude P2 membrane fraction was also prepared from the livers of Sprague-Dawley rats (150-220 g, Taconic Farms). The animals were decapitated and their livers were minced and homogenized. The tissue homogenization was carried out at 4° C. in 10 mM tris-HCl/0.32 M sucrose, pH=7.4 using 10 motor-driven strokes in a Potter-Elvehjem Teflon glass homogenizer. The crude homogenate was centrifuged for 10 min at 1000 g and the crude nuclear (P1) pellet was discarded. Supernatants were centrifuged at 31000×g for 15 min to yield a plasma membrane-mitochondrial pellet (P2). This pellet was resuspended in 3 ml/g in 10 mM tris-HCl, pH 7.4 and used for binding studies. Protein concentrations were determined by the method of Lowry.
Filters were washed twice with ice-cold 10 mM tris-HCL. Prior to use, filters were soaked in 0.5% polyethyleneimine for about 30 min at 25° C.
(§4) When the assay was terminated, the membranes were filtered and the filtrate washed twice as above. The radioactivity was counted in Ecoscint (National Diagnostics, Manville, N.J.) after an overnight extraction of counts.
(§5) Ki values were calculated from the IC50 values using Cheng-Prusoff equation.

PCP = PCP binding, rat brain, [3H]TCP; conditions: Table 2 of Example 9
[6] = biological target: T4, sigma sites labeled by 4-[125I]BP in MCF-7 breast cancer cells (Homo sapiens, UniProt Q5BJF2); experiment: Homologous and heterologous competition for 4-[125I]BP binding in intact MCF-7 cells; conditions: 37° C. for 1 hr., unit printed in b378 only, not in the table
T4 construct: Intact adherent cells were washed (2×1 mL) with 10 mM phosphate buffer; endogenous in cells; host or cells: intact adherent MCF-7 breast cancer cells

[7] = test system: MCF-7 breast cancer cells; design: species or system human; conditions: read-out: Kd, saturable binding
Source text: The cells were adherent and split weekly in a 1:20 ratio using trypsin/EDTA (GIBCO).

[8] = test system: sites labeled by 4-[125I]PEMP in MCF-7 breast tumor cells
Procedure: as §1, §2

Sigma-1 [9] = biological target: T3, Sigma-1; experiment: Sigma-1 binding assay, guinea pig brain membranes, [3H]-(+)-pentazocine (Example 8); conditions: read-out: Ki Sigma-1 Guinea Pig Brain; 3 nM [3H]-(+)-pentazocine, 60 min at 37° C.
Procedure: (§6) A crude P2 membrane fraction was also prepared from the livers of rat Sprague-Dawley rats (150-220 g, Taconic Farms) liver. The animals were decapitated and their livers were minced and homogenized. The tissue homogenization was carried out at 4° C. in ml/g tissue weight of 10 mM Tris-HCl/0.32 M sucrose, pH=7.4 using 10 motor-driven strokes in a Potter-Elvehjem Teflon glass homogenizer. The crude homogenate was centrifuged for 10 min at 1000 g and the crude nuclear (P1) pellet was discarded. Supernatants were centrifuged at 31000 g for 15 min to yield a plasma membrane-mitochondrial pellet (P2). This pellet was resuspended in 3 ml/g in 10 mM tris-HCl, pH 7.4 and used for binding studies. Protein concentrations were determined by the method of Lowry.
(§7) Filters were washed twice with ice-cold buffer. Prior to use, filters were soaked in 0.5% polyethyleneimine for about 30 min at 25° C.
as §4, §5

[10] = biological target: T5, Sigma-2, rat C6 glioma cells (Rattus norvegicus, UniProt Q5U3Y7); experiment: Sigma-2 binding assay, C6 glioma cell homogenates, [3H]DTG + dextrallorphan (Example 8); conditions: read-out: Ki Sigma-2 C6 Glioma Cells; 3 nM [3H]DTG, 1 micromolar dextrallorphan
T5 sequence (Q5U3Y7 1-176): T1 sequence (Q5U3Y7 1-176)
Procedure: as §7, §4, §5

[11] = test system: A2058 human malignant melanoma cells; experiment: In vitro competitive binding of nonradioactive IPAB against [125I]PAB in A2058 cells; conditions: 37° C. for 5 hr., read-out: Ki, nonradioactive IPAB inhibiting binding of radioactive IPAB
Procedure: These cells were grown in DMEM2 medium (Dulbecco's modification of Eagle's medium, EMEM) supplemented with 10% fetal bovine serum and 0.03% L-glutamine.
A2058 cells, grown as described above, were harvested with calcium and magnesium free phosphate buffer (0.1 M) containing 0.02% EDTA. Cells were washed twice with ice-cold RPMI 1640 medium (Gibco) without glutamine and resuspended in the same medium. Carrier-free [^125I]PAB (0.1 ml) was added to eight aliquots of 0.1 ml test A2058 cells (1.5×10^6 cells in suspension). To observe competitive binding by non-radioactive IPAB, varying concentrations of non-radioactive IPAB were added in a volume of 0.1 ml. Cells were incubated at 37° C. for 5 hr. after addition of radioactive and nonradioactive IPAB.
After incubation, cells were collected by centrifugation for 5 min and washed twice with RPMI 1640 medium. The radioactivity bound to cells was counted using a Packard Autogamma 5650 scintillation counter.
Data were analyzed with an INPLOT® iterative, non-linear least square curve fitting program.

Sigma-2 [12] = biological target: T1, Sigma-2; experiment: Sigma-2 binding assay, rat liver membranes, [3H]DTG + dextrallorphan (Example 8); conditions: read-out: Ki Sigma-2 Rat Liver; 3 nM [3H]DTG, 1 micromolar dextrallorphan
Procedure: as §6, §7, §4, §5

[13] = biological target: Sigma-1 sites, T47D breast ductal carcinoma
[14] = test system: human adenocarcinoma xenograft (NCI-838); experiment: Scintigraphic imaging of nude mouse bearing human lung adenocarcinoma xenograft; format: in vivo, Balb/c nu/nu mice; conditions: 24 and 30 hrs. post-injection
Procedure: (§3) A2058 cells, derived from a brain metastasis of human malignant melanoma (Todaro et al. 1980 Proc. Natl. Acad. Sci. USA 77: 5258) were obtained from the National Institutes of Health. A human lung adenocarcinoma cell line, NCI-838, was obtained from the National Cancer Institute. These cells were grown in DMEM2 medium (Dulbecco's modification of Eagle's medium, […]) supplemented with 10% fetal bovine serum and 0.03% L-glutamine.
Balb/c nu/nu mice (17-22 g) bearing human melanoma or non-small cell lung carcinoma xenograft tumors were injected intravenously with 0.2 ml of saline solution containing [^131I]PAB or [^131I]DAB (150-200 μCi). The animals were anesthetized with ketamine containing rompun before the imaging studies. […]

[15] = test system: human melanoma xenograft tumors (A2058); experiment: Scintigraphic imaging of nude mice bearing human melanoma xenografts; format: in vivo, Balb/c nu/nu mice
Procedure: as §3
Balb/c nu/nu mice (17-22 g) bearing human melanoma or non-small cell lung carcinoma xenograft tumors were injected intravenously with 0.2 ml of saline solution containing [^131I]PAB or [^131I]DAB (150-200 μCi). The animals were anesthetized with ketamine containing rompun before the imaging studies. The images were obtained using a scintigraphic camera with a pin-hole collimator at 6 and 24 hr. post injection.

[16] = read-out: Ki SIGMA-2 RAT LIVER [3H]DTG + DEX, Table 2 of Example 9
[17] = read-out: Ki SIGMA-1 GUINEA PIG BRAIN [3H]-(+)-PENT, Table 2 of Example 9, 120 min at 25° C.

T3 sequence (Q60492 whole entry): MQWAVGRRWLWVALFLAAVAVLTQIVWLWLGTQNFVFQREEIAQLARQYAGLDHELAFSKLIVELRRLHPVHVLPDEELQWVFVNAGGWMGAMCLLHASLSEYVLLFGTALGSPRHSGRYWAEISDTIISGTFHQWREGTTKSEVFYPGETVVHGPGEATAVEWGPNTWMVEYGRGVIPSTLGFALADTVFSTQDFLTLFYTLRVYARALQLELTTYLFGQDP
T2 sequence (P61169 whole entry): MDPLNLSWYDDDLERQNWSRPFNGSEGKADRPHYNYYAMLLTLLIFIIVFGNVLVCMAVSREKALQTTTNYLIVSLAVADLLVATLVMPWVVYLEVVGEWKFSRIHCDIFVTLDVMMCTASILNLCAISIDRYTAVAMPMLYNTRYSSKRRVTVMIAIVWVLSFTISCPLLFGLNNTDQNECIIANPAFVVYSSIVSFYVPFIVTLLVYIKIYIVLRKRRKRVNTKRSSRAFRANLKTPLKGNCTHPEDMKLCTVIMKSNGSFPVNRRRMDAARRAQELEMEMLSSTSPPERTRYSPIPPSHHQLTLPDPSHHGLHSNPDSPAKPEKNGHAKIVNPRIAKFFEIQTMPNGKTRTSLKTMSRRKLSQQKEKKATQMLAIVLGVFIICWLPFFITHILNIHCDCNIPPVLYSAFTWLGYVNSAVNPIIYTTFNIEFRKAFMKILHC
T4 sequence (Q5BJF2 whole entry): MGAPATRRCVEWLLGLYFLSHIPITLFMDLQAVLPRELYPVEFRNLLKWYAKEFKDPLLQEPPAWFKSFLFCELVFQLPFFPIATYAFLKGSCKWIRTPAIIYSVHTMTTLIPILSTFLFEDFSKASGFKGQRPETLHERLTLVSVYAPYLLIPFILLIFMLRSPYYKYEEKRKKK

`CC(C)=CCN1CCC2(C)c3cc(O)ccc3CC1C2C` (single isomer, unassigned; (+)) [(+)-Pentazocine] was tested, and the Ki [1] was 35.9 nM and the “specific binding to sigma-1 sites” value [2] was “little or no specific binding”.

`O=C(NC1CCN(Cc2ccccc2)CC1)c1ccccc1I` [2-IBP, (N-Benzylpiperidin-4-yl)-2-iodobenzamide] was tested, and the Ki (Sigma-2 [3]; [16]) was 29.6 ± 0.49 nM, the Ki [4] was > 100000 nM and the Ki (DOPAMINE D-2) was 63.4 ± 10.8 nM. The Ki (Sigma-1 [5]; [17]) was 1.64 ± 0.15 nM and the Ki (PCP) was > 100000 nM.

With `O=C(NC1CCN(Cc2ccccc2)CC1)c1cccc(I)c1` [3-IBP, (N-Benzylpiperidin-4-yl)-3-iodobenzamide] the Ki (Sigma-2 [3]; [16]) was 84.6 ± 2.5 nM, the Ki [4] was > 100000 nM and the Ki (DOPAMINE D-2) was 24.8 ± 0.02 nM. For the same molecule, the Ki (Sigma-1 [5]; [17]) was 3.02 ± 1.06 nM and the Ki (PCP) was > 100000 nM.

In the case of `O=C(NC1CCN(Cc2ccccc2)CC1)c1ccc(I)cc1` [4-IBP, (N-Benzylpiperidin-4-yl)-4-iodobenzamide], the Ki (Sigma-2 [3]; [16]) is reported as 25.2 ± 1.28 nM, the Ki [4] is reported as > 100000 nM and the Ki (DOPAMINE D-2) is reported as 382 ± 39 nM. For the same molecule, the Ki [6] was 4.8 ± 2 nM and the Ki (PCP) was > 100000 nM.

Molecule `CN(CCc1ccc(I)cc1)CCN1CCCCC1` [4-IPEMP, N-[(4-I-iodophenyl)ethyl]-N-methyl-2-(1-piperidinyl)-ethylamine] has a Ki (Sigma-2 [3]) of 52.6 nM and a Ki (Sigma-1 [5]) of 7.02 nM.

Molecule `O=C(NC1CCN(Cc2ccccc2)CC1)c1ccc(I)cc1` [4-[^125I]BP, ^125I-(N-Benzylpiperidin-4-yl)-4-iodobenzamide] has a Kd [7] of 26 nM.

With `CCCN1CCC[C@H](c2cccc(O)c2)C1` [(+)-PPP] the Ki [6] was > 1000 nM.

`CN(CCc1ccc(Cl)c(Cl)c1)CCN1CCCC1` [BD1008] was tested, and the Ki [1] was 5.6 nM and the “inhibition of specific binding of 4-[125I]PEMP” value [8] was “high affinity, concentration-dependent inhibition of specific binding”.

`CN(CCc1ccc(Br)cc1)CCN1CCCCC1` [Br-PEMP, N-[2-(4-Bromophenyl)ethyl]-N-methyl-2-(1-piperidinyl)ethylamine] gave a Ki (Sigma-2 [3]) of 51.8 nM and a Ki (Sigma-1 [5]) of 6.27 nM.

`O=C(NCCN1CCCCC1)c1ccc(I)cc1` [IPAB, (2-Piperidinylaminoethyl)4-iodobenzamide] was tested, and the Ki (Sigma-1 [9]) was 0.89 nM, the Ki [10] was 130 nM and the Ki [11] was 6.8 nM. The Ki (Sigma-2 [12]) was 24 nM.

`O=C(CCCN1CCC2(CC1)C(=O)NCN2c1ccccc1)c1ccc(F)cc1` [Spiperone] was tested, and the Ki [6] was 247 ± 37 nM.

In the case of `CC(C)=CCN1CC[C@]2(C)c3cc(O)ccc3C[C@H]1[C@H]2C` [[^3H] (+)-pentazocine], the Kd ([13]; read-out: Kd1 Sigma-1) is reported as 6.62 nM, the Kd ([13]; read-out: Kd4 Sigma-1) is reported as 261 nM and the “specific binding to sigma-1 sites” value [2] is reported as “No specific binding”.

For “^131I(2-Piperidinylaminoethyl)4-iodobenzamide [[^131I]PAB]”, the “visualization of implanted tumor, scintigraphic image” value [14] was “easily visualized the implanted tumor”, the “detection in the tumor, scintigraphic image” value ([15]; 6 and 24 hrs. post injection) was “detected only within the tumor” and the “uptake in the liver, scintigraphic image” value ([15]; 6 and 24 hrs. post-administration) was “Little or no”.
